Assay results as given in US20250302929A1, “TUMOR NEOANTIGENIC PEPTIDES” (INSTITUT CURIE, priority 2021, published 2025).
Entries after “also recorded” stand apart in the source; their conditions may differ.

Tests used:
[1] = test system: CD8+ T cells from HLA-A2+ healthy donors; test: Priming of naive CTLs, in vitro immunogenicity assay, tetramer staining; assay type: cell-based, human; details: for expansion of specific CD8+ T cells (tetramer positive): one donor, versus co-culture without peptides; for specific CD8+ T expansions (immunogenicity): total of 6 donors, FIG. 11A
Method: Priming of naïve CTLs. PBMCs were obtained by Ficoll gradient separation from HLA-A2+ healthy blood donors. CD14+, CD4+ and CD8+ cells were purified by positive selection using magnetic beads (Miltenyi Biotec). While CD4+ and CD8+ T cells were cryopreserved until the experiment day, CD14+ fraction was cultured in the presence of IL-4 (50 ng/ml) and GM-CSF (10 ng/mL) at 10^6 cells/mL during 5 days to obtain moDCs. After this period of time, the moDCs were maturated with LPS and incubated with synthetic ER-derived peptides at a final concentration of 1 μg/mL for 2 hours. Finally, peptide-loaded moDCs were co-cultured with autologous CD4+ and CD8+ T cells in culture medium supplemented with IL-2 (10U/ml) and IL-7 (100 ng/ml). The ER-derived peptide stimulation of specific CD8+ CTL populations was assessed by MHC-I tetramer staining by flow cytometry using a combination of two-color tetramer for each peptide.
(§1) Tetramer Staining. Cells were resuspended in PBS, stained with Live/Dead Aqua-405 nm (ThermoFisher) during 20 minutes at 4° C. and washed once. After that, cells were resuspended in PBS-1% BSA containing the mix of SA-coupled tetramers and incubated in the dark at room temperature during 20 minutes. Without further washing, surface antibodies were added in PBS-1% BSA and cells were incubated 20 minutes in the dark at 4° C. Surface antibodies were a combination of anti-CD3-BV650+ anti-CD8-PECy7 in combination with anti-CCR7-AF700+ anti-CD45RA-BUV395 when required. Finally, cells were washed twice and resuspended in FACS buffer for flow cytometry analysis.
The following step after binding validation to HLA-A2 allele, was to test the immunogenicity of predicted peptides. Priming assays were thus performed to test the ability of identified peptides to expand specific cytotoxic T cells. PBMCs from HLA-A2+ healthy donors were used to generate monocyte derived-DCs (moDCs). After loading the moDCs with a mix of synthetic peptides, autologous co-culture was performed with CD4+ and CD8+ T cells. Finally, the expansion of specific CD8+ T cells was analysed by flow cytometry using two-colours tetramer staining. As a control of specific expansion, the co-culture was performed in the absence of peptides.

[2] = test system: CD8+ T cells from tumor, juxta tumor, lymph nodes and blood of LUAD patients; test: Tetramer staining of TILs and CD8+ T cells from LUAD patient samples; assay type: cell-based, human; details: TILs from LUAD patients expanded with peptide mix + IL-2 or IL-2 only
Method: In experiments addressed to evaluate the presence of specific CD8+ T cells, the tetramerization step was performed by incubating the monomers with different combinations of fluorescent streptavidin (PE, APC, PE-Cy5, PE-CF594, BV421, BV711 and FITC).
as §1, with “analysis. […]” for “analysis.”
Tumor infiltrating lymphocytes (TILs) cultures. […] Cells were feed/split as necessary during 15-20 days and cryopreserve or analyzed for tetramer staining.
In a first set of experiments tumor infiltrating lymphocytes (TILs) expanded with a mix of TE-derived peptides and Il-2, or only with Il-2, were analyzed by tetramer staining. […]
In a second cohort of 5 primary, untreated, LUAD tumor, juxta-tumor, tumor-draining lymph node and blood samples from LUAD cancer HLA-A2+ patients were analyzed. […]

| Sequence | expansion of specific CD8+ T cells (tetramer positive) [1] | specific CD8+ T expansions (immunogenicity) [1] | tetramer positive CD8+ T cells in TILs [2] |
| --- | --- | --- | --- |
| AILPKANTV | expand specific CD8+ T cells | specific CD8+ T expansions |  |
| AMDGKELSL |  | specific CD8+ T expansions |  |
| FLGTRVTRV |  | specific CD8+ T expansions |  |
| FLIVAEILI | expand specific CD8+ T cells |  |  |
| GLLNISHTA |  | specific CD8+ T expansions |  |
| GLPSHVELA |  | specific CD8+ T expansions; also recorded: immunogenic | TILs recognizing |
| ILHSLVTGV |  | specific CD8+ T expansions |  |
| ILSGYGPCV |  | specific CD8+ T expansions |  |
| ILTASITSI |  | specific CD8+ T expansions |  |
| LLDRFGYHV |  | specific CD8+ T expansions |  |
| LLGETKVYV | expand specific CD8+ T cells | specific CD8+ T expansions |  |
| LLHLESFLV |  | specific CD8+ T expansions |  |
| LLTSWHLYL |  | specific CD8+ T expansions |  |
| MLMKTVWQA |  | specific CD8+ T expansions |  |
| MLVTWELAL |  | specific CD8+ T expansions |  |
| RLADHLSFC | expand specific CD8+ T cells | specific CD8+ T expansions; also recorded: immunogenic |  |
| RLLHLESFL | expand specific CD8+ T cells | specific CD8+ T expansions |  |
| RQAPGFHHA |  | specific CD8+ T expansions |  |
| SLMQSGSPV |  | specific CD8+ T expansions |  |
| VLLTNTIWL |  | specific CD8+ T expansions |  |
| VLMWTMAHL |  | specific CD8+ T expansions |  |
| YLPYFLKSL |  | specific CD8+ T expansions |  |
| YLQGLPLPL |  | specific CD8+ T expansions |  |
| YLWTTFFPL | expand specific CD8+ T cells | specific CD8+ T expansions |  |
